What was measured:
[1] = tested on: JAK1/JAK3; experiment: IL-2-stimulated pSTAT5 in human whole blood; type: cell-based
Description: With respect to IL-2-stimulated JAK1/3 activation in human whole blood cells, whole blood (50 μL) was preincubated with compounds for 30 min and then stimulated with IL-2 (20 ng/mL) for 15 min.
(§1) The stimulations stated above were terminated with prewarmed Lyse/Fix Buffer (558,049; BD Biosciences, San Jose, CA, USA) for 10 min. Cells were stained with an anti-cluster of differentiation (CD)3 fluorescein isothiocyanate (FITC) antibody (required for PBMCs but not for the other cell types), washed, and permeabilized on ice using Perm III Buffer (558,050; BD Biosciences) prior to staining with an Alexa Fluor 647 anti-phosphorylated (p)STAT5 (pY694) antibody for 30 min and analyzed by flow cytometry. Phosphorylation of STAT5 was quantified by the median fluorescence intensity (MFI) after gating on the CD3-positive population.

[2] = tested on: JAK2/JAK2; experiment: TPO-stimulated pSTAT3/STAT5 in platelets of human whole blood; type: cell-based
Description: Stimulation was terminated by adding Lyse/Fix buffer. Staining with BUV786 mouse anti-human CD61 antibody (744384; BD Biosciences) was carried out, followed by washing, permeabilization and staining with PE mouse anti-human STAT3 antibody (651004; BD Biosciences) and APC mouse anti-human STAT5 antibody (562076; BD Biosciences), as described above. The expression of p-STAT3 and STAT5 was quantified by the MFI after the number of CD61-positive platelets was optimized.

[3] = tested on: JAK2/JAK2; experiment: GM-CSF-stimulated pSTAT5 in U937 cells; type: cell-based, human; settings: @10μM
Description: With respect to GM-CSF-stimulated JAK2 activation in U937 cells (Cobioer Biosciences, CBP60277), after 1 h of treatment with QL-1200186, U937 cells were stimulated with GM-CSF (20 ng/mL; C003; Novoprotein, Suzhou, China) for 15 min.
as §1

[4] = tested on: TYK2/JAK1; experiment: IFNα HEK293 (HEK-Blue IFN-α/β) reporter gene assay; type: cell-based, human
Description: HEK-Blue™ IFN-α/β cells were used to determine the activity of QL-1200186. After 24 h of incubation with QL-1200186, HEK-Blue™ IFN-α/β cells (Invivogen; NKB-IFNAB) were stimulated with human IFNα (200 U/mL; catalog number: 11200–2; PBL Assay Science; Piscataway, NJ, USA) for 6 h. Stimulation of HEK-Blue IFN-α/β cells with human IFNα activates the JAK/STAT/ISGF3 pathway and subsequently induces the production of SEAP. Levels of SEAP in the supernatant were readily assessable using QUANTI-Blue™ Solution (InvivoGen, San Diego, CA, USA).

[5] = tested on: TYK2/JAK1; experiment: IFNα-stimulated pSTAT5 in human PBMC (CD3+), FACS; type: cell-based
Description: With regard to IFNα-stimulated phosphorylation of STAT5 in human peripheral blood mononuclear cells (PBMCs), after incubation with QL-1200186 for 1 h, human PBMCs were stimulated with recombinant human IFNα (1000 U/mL; 11200–2; PBL Assay Science) for 30 min.
as §1

[6] = tested on: TYK2/JAK1; experiment: IL-23 HEK293 reporter assay; type: cell-based, human
[7] = tested on: TYK2/JAK1; experiment: IL-23-induced pSTAT3 in human Th17 cells; type: cell-based
Description: Human naïve CD4^+ T cells were separated using a human naïve CD4^+ T-cell isolation kit (StemCell, #17,852), and then cells were stimulated with anti-CD3 monoclonal antibody and anti-CD28 monoclonal antibody for 7–10 days under the following Th17-skewing treatments: IL-6, IL-23, IL-1β and transforming growth factor-β. Half of the medium was replaced with fresh medium containing a stimulant to induce differentiation every other day. Th17 cells were incubated overnight at 37 °C for deactivation. Cells were reinoculated on 96-well plates and cocultured with gradient-diluted QL-1200186 for 1 h and then stimulated with recombinant human IL-23 (ACRO: #IL-B-H52 WS) for 0.5 h. Cells were collected, and phosphorylation of STAT3 was quantified according to the MFI.

[8] = tested on: TYK2/JAK2; experiment: IL-12/IL-18-induced IFNγ production in NK-92 cells, ELISA; type: cell-based, human
Description: The inhibitory effect of QL-1200186 on IL-12/IL-18-induced IFNγ production in NK cells or human whole blood was determined by enzyme-linked immunosorbent assay (ELISA). NK92 cells were stimulated with recombinant human IL-12 (2 ng/mL; 200–12; PeproTech, Cranbury, NJ, USA) and recombinant human IL-18 (5 ng/mL; 9124-IL-050/CF; R&D Systems, Minneapolis, MN, USA) with or without QL-1200186 for 24 h at 37 °C. For human whole blood cells, whole blood (200 μL) was preincubated with the compound for 1 h and then stimulated with recombinant human IL-12 (2 ng/mL) or recombinant human IL-18 (10 ng/mL) for 24 h. After centrifugation, the supernatant was collected, and IFNγ production in the supernatant was measured with human IFNγ ELISA kits according to the manufacturer’s instructions (Biolegend, 430,104).

[9] = tested on: JAK1/JAK3; experiment: IL-2-stimulated pSTAT5 in human PBMC; type: cell-based; settings: @10μM
Description: With regard to IL-2-stimulated JAK1/3 activation in human PBMCs, after 1 h of incubation with QL-1200186, human PBMCs were stimulated with human IL-2 (20 ng/mL; C013; Novoprotein) for 20 min.
as §1

[10] = tested on: TYK2/JAK1; experiment: IFNα-induced pSTAT1 in CD19+ B cells of human PBMCs; type: cell-based
Description: (§2) The reaction was terminated by collecting cells for surface staining. Cells were stained with anti-CD3 FITC (300406; Biolegend, San Diego, CA, USA), anti-CD19 APC (555415; BD Biosciences) or aqua fluorescent reactive dye BV421 (L34966A; Invitrogen, Carlsbad, CA, USA) antibodies for 20 min. After washing, fixation buffer (557870; BD Biosciences) was added and incubated for 10 min. Cells were washed and permeabilized on ice using Perm III Buffer (558050; BD Biosciences). Cells were stained with PE anti-PSTAT1 antibody (562069; BD Biosciences) for 30 min and analyzed by flow cytometry.

[11] = tested on: TYK2/JAK1; experiment: IFNα-induced pSTAT1 in CD3+ T cells of human PBMCs; type: cell-based
Description: as §2

Compound	activity in IL-2-mediated JAK1/JAK3 signaling [1]	activity in thrombopoietin (TPO)-induced JAK2/JAK2 signaling ([2]; human whole blood)	GM-CSF-pSTAT5 in U937 (JAK2/JAK2) inhibition [3] [% inhibition @10μM]	IC50 [4] [nM]	IC50 [5] [nM]	IC50 [6] [nM]	IC50 [7] [nM]	IC50 [8] [nM]	IL-2- pSTAT5 in PBMC (JAK1/JAK3) inhibition [9] [% inhibition @10μM]	IC50 [10] [nM]	TPO-pSTAT3/STAT5 in human whole blood (JAK2/JAK2) inhibition ([2]; @10μM)	IC50 [11] [nM]
CNc1cc(Nc2cccn(-c3ccccn3)c2=O)nc2c(C(=O)N[C@@H]3CC[C@H]3OC)cnn12 [NDI-034858, reference compound]	no activity	no activity	–	–	–	–	–	–	–	–	–	–
deucravacitinib [BMS-986165, reference compound]	slight inhibitory effect	–	~10	6.33	19	6.41	6	38.8	~40	6.29	no inhibition @10μM	7.8
